According to patent US7772180B2, “Hepatitis C virus inhibitors” (Bristol-Myers Squibb Company, priority 2006, dated 2010):
pIC50: −log10 of the molar value.

Experiments:
[1] = target: T1, HCV NS3/4A protease complex, H77 strain (Hepatitis C virus genotype 1a, UniProt P27958, C1454S/C1711G); experiment: FRET peptide assay to monitor HCV NS3/4A proteolytic activity (H77 strain); format: biochemical; details: read-out: IC50 against the NS3/4A H77 strain
T1 construct: DNA encoding the recombinant HCV NS3/4A protease complex (amino acids 1027 to 1711) for these strains; made in house; host or cells: Escherichia coli BL21 (DE3), pET21b
T1 sequence (P27958 1027-1711 C1454S/C1711G, one chain of several): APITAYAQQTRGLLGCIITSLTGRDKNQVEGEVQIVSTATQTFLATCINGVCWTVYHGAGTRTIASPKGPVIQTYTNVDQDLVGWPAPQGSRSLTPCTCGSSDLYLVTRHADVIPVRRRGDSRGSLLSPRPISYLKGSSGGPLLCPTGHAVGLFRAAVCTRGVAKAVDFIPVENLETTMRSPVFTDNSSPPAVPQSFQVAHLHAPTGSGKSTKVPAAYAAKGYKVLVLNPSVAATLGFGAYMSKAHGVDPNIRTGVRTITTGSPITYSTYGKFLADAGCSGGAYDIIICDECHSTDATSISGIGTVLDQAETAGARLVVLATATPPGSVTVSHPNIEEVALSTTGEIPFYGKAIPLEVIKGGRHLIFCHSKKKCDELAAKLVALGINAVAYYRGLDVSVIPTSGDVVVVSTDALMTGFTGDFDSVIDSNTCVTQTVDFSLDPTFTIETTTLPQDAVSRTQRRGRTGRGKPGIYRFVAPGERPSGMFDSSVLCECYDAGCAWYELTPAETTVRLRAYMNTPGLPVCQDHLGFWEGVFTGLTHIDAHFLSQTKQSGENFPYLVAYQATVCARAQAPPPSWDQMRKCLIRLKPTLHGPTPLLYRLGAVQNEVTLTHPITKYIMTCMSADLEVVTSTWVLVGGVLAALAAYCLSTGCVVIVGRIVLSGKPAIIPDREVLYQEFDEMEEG
Text: HCV NS3 protease complexes, derived from the BMS strain, H77 strain or J4L6S strain, were generated, as described below. These purified recombinant proteins were generated for use in a homogeneous assay (see below) to provide an indication of how effective compounds of the present disclosure would be in inhibiting HCV NS3 proteolytic activity.
Serum from an HCV-infected patient was obtained from Dr. T. Wright, San Francisco Hospital. An engineered full-length cDNA (compliment deoxyribonucleic acid) template of the HCV genome (BMS strain) was constructed from DNA fragments obtained by reverse transcription-PCR (RT-PCR) of serum RNA (ribonucleic acid) and using primers selected on the basis of homology between other genotype 1a strains. From the determination of the entire genome sequence, a genotype 1a was assigned to the HCV isolate according to the classification of Simmonds et al. (See P Simmonds, K A Rose, S Graham, S W Chan, F McOmish, B C Dow, E A Follett, P L Yap and H Marsden, J. Clin. Microbiol., 31(6), 1493-1503 (1993)). […]

[2] = target: T2, porcine pancreatic elastase (PPE) (Sus scrofa, UniProt P00772); experiment: Specificity assay, porcine pancreatic elastase; format: biochemical; details: read-out: PPE activity in the specificity assays (IC50)
T2 construct: purchased Sigma, EMDbiosciences
T2 sequence (P00772 27-266): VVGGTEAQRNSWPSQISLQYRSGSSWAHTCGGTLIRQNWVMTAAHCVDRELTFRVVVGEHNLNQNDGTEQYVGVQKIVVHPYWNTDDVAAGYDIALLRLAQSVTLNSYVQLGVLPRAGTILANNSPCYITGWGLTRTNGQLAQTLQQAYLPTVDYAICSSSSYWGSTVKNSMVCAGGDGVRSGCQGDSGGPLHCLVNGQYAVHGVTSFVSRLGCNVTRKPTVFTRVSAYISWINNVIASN
Procedure: The specificities of compounds of the present disclosure were determined against a variety of serine proteases: human neutrophil elastase (HNE), porcine pancreatic elastase (PPE) and human pancreatic chymotrypsin and one cysteine protease: human liver cathepsin B. In all cases a 96-well plate format protocol using either colorimetric p-nitroaniline (pNA) substrate or fluorometric Amino-Methyl-Coumarin (AMC) specific for each enzyme was used as described previously (PCT Patent Application No. WO 00/09543) with some modifications to the serine protease assays. All enzymes were purchased from Sigma, EMDbiosciences while the substrates were from Bachem, Sigma and EMDbiosciences.
The pNA assay for Chymotrypsin included a 1 h enzyme-inhibitor pre-incubation at room temperature followed by addition of substrate and hydrolysis to ˜15% conversion as measured on a Spectramax Pro microplate reader. Compound concentrations varied from 100 to 0.4 μM depending on their potency. Cathepsin B, HNE, and PPE assays each was initiated by addition of substrate to enzyme-inhibitor pre-incubated for 10 min at room temperature and hydrolysis to 15% conversion as measured on cytofluor.
50 mM Tris-HCl, pH 8.0, 50 mM NaCl, 0.1 mM EDTA, 3% DMSO, 0.02% Tween-20, 5 μM succ-AAPV-AMC and 20 nM HNE or 8 nM PPE;
The percentage of inhibition was calculated using the formula: [1−((UVinh−UVblank)/(UVctl−UVblank))]×100 […]

C=C[C@@H]1C[C@]1(NC(=O)[C@@H]1C[C@@H](Oc2nc(N(C)C)cc3cc(OC)ccc23)CN1C(=O)C(Nc1cc(C)cc(C)n1)C(C)(C)C)C(=O)NS(=O)(=O)C1CC1 (single isomer, unassigned) [Compound 18]
pIC50 [1]: 8.92 | pIC50 [2]: < 5.81
